For one compound, IC50, Activity and inhibition results are on record in ChEMBL document CHEMBL5137082, “Discovery of a Novel Vascular Disrupting Agent Inhibiting Tubulin Polymerization and HDACs with Potent Antitumor Effects” (J Med Chem, 2022).

As a reminder, the IC50 is the concentration that gives 50% inhibition. In general, inhibition refers to the drop in the measured response relative to a control, in per cent.

Data set [1] relates to HepG2. The experiment in a line: Antiproliferative activity against human HepG2 cells assessed as inhibition of cell growth measured after 72 hrs by MTT assay. The class given is functional, cell-based. The conditions noted are these: HepG2, 72 h. A general note: Tetrazolium dyes change colour on reduction, which living cells bring about.
Data set [2] in a line: Toxicity in ICR mouse allografted with mouse H22 cells assessed as change in heart rate at 20 mg/kg, iv administered qd measured after 21 days. The class given is organism-based. The conditions noted are these: in vivo, 504 h, time 21 day.
Data set [3] deals with MDA-MB-231. Nature of the data set: Inhibition of cell invasion in human MDA-MB-231 cells measured after 48 hrs by crystal violet staining based transwell assay. The class given is functional. The conditions noted are these: dose 7.5-30 nM, DDE = dose-dependent effect.
Data set [4] addresses Tubulin (Homo sapiens) (UniProt P68371+Q9H4B7+P0DPH7+P68366+Q13509+Q71U36+P04350+Q3ZCM7+P07437+P68363+Q9BQE3+Q6PEY2+Q13885+Q9BVA1+Q9BUF5). The experiment in a line: Inhibition of [3H]Colchicine binding to tubulin (unknown origin) at 5 uM measured after 2 hrs by scintillation counting method relative to control. The class given is protein-complex assay.
Data set [5] can be described thus: Cardiotoxicity in ICR mouse allografted with mouse H22 cells assessed as effect on T wave at 20 mg/kg, iv administered qd measured after 21 days by ECG analysis. To be noted: in vivo, 504 h, time 21 day. The class given is toxicity, organism-based.
The target in data set [6] is Histone deacetylase 3 (Homo sapiens, UniProt O15379). Nature of the data set: Inhibition of HDAC3 in human HeLa cells using BOC-K(Ac)-AMC as substrate measured after 30 mins by fluorescence based microtiter plate reader assay. The class given is cell-based.
Chain of Histone deacetylase 3 (O15379 whole entry): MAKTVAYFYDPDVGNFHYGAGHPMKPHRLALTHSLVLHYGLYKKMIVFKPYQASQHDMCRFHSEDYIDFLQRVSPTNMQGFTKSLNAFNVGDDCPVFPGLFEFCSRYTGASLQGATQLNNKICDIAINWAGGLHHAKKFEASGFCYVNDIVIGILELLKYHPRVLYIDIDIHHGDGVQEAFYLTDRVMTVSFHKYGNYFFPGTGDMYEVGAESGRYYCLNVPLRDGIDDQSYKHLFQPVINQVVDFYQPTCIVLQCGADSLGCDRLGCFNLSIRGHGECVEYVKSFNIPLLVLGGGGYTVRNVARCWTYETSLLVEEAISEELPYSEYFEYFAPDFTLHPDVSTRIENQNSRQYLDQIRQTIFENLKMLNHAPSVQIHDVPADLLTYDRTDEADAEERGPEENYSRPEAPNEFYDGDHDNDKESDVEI
Data set [7] is described as follows: Toxicity in ICR mouse allografted with mouse H22 cells assessed as pathological changes in kidney at 20 mg/kg, iv administered qd measured after 21 days by H and E staining based analysis. The class given is organism-based. To be noted: in vivo, 504 h, time 21 day.
In data set [8] the test system is HepG2. The experiment in a line: Induction of apoptosis in human HepG2 cells assessed as necrotic cells at 15 nM incubated for 48 hrs by Annexin-V/PI-staining based flow cytometry (reference value: 1.43 +/- 0.26%). The class given is functional. (In general: In flow cytometry, cells or beads pass a laser one at a time.)
Data set [9] concerns H22. Nature of the data set: Antitumor activity against mouse H22 cells allografted in ICR mouse assessed as reduction in tumor weight at 20 mg/kg, iv administered qd measured after 21 days. The class given is functional. On the set-up: scale not given: the % may be the effect or the level left. The conditions noted are these: time 21 day.
Data set [10] has as its system Mus musculus. The experiment in a line: In vivo inhibition of HDAC in ICR mouse allografted with mouse H22 cells assessed as upregulation of acetyl-alpha tubulin expression at 20 mg/kg, iv qd administered for 21 days measured after 24 hrs by Western blot analysis. The class given is functional, organism-based. The conditions noted are these: time 21.0 day. For orientation: A western blot detects proteins with antibodies after separation by electrophoresis.

Data set [11] relates to HepG2. The experiment in a line: Induction of apoptosis in human HepG2 cells assessed as downregulation of Bcl-xL protein expression measured after 24 hrs by Western blot analysis. The class given is functional, cell-based. The conditions noted are these: dose 7.5-30 nM, DDE = dose-dependent effect.
The test system of data set [12] is HepG2. Nature of the data set: Induction of apoptosis in human HepG2 cells assessed as upregulation of Bad protein expression measured after 24 hrs by Western blot analysis. The class given is functional, cell-based. The conditions noted are these: dose 7.5-30 nM, DDE = dose-dependent effect.
The test system of data set [13] is K562. Nature of the data set: cells. The class given is functional, cell-based. The conditions noted are these: Homo sapiens, K562, 72 h.
Description: Antiproliferative activity against human K562 cells assessed as inhibition of cell growth measured after 72 hrs by MTT assay
The test system of data set [14] is PC-3. Nature of the data set: Induction of apoptosis in human PC-3 cells assessed as mitochondrial membrane potential loss by measuring early apoptotic cells at 30 nM incubated for 48 hrs by JC1 staining based flow cytometry analysis (reference value: 6.50 +/- 0.17%). The class given is functional.
Data set [15] concerns H22. The experiment in a line: Antitumor activity against mouse H22 cells allografted in ICR mouse assessed as inhibition of tumor growth at 20 mg/kg, iv administered qd for 21 days measured after 12 days. The conditions noted are these: time 21.0 day. The class given is functional, organism-based.
For data set [16], the system named is HUVEC. Nature of the data set: Antivascular activity against HUVEC cells assessed as inhibition of capillary-like tubule formation at 30 nM measured after 6 hrs by inverted microscopy. The class given is functional, cell-based. The conditions noted are these: Homo sapiens.
Data set [17] relates to HepG2. The experiment in a line: Induction of cell cycle arrest in human HepG2 cells assessed as accumulation G2 phase at 30 nM incubated for 48 hrs by propidium iodide staining based flow cytometry analysis (reference value: 23.55 +/- 0.29%). The class given is functional.
Data set [18] is described as follows: Toxicity in ICR mouse allografted with mouse H22 cells assessed as systolic blood pressure at 20 mg/kg, iv administered qd measured after 21 days. The conditions noted are these: in vivo, 504 h, time 21 day. The class given is organism-based.
For data set [19], the system named is HepG2. Nature of the data set: Induction of apoptosis in human HepG2 cells assessed as downregulation of Bcl-2 protein expression measured after 24 hrs by Western blot analysis. The class given is functional, cell-based. To be noted: dose 7.5-30 nM, DDE = dose-dependent effect.

The source made the active and inactive calls. No cut-off for these calls is given here.

For `COc1ccc(CNC(=O)c2cc(F)ccc2N2CCOCC2)cc1/C=C/C(=O)NO`, the IC50 in data set [1] was found to be 29 nM; in data set [6], 242 nM; in data set [13] it was 18 nM. Moreover, the Activity result in data set [2] is “Non-Toxic”; in data set [5], “Non-Toxic”; in data set [7] it was “Non-Toxic”; in [8], 1.13%; in [9], 83%; in data set [11], “Dde”. Further, the Activity entry was “Dde” in data set [12]; 59.5% in data set [14]; 33.09% in data set [17]; “Non-Toxic” in data set [18]; “Dde” in data set [19]. The inhibition entry is “Dde” in data set [3] and 63.4% in [4]. For the same compound, the inhibition entry in [10] is “Active”. The result in data set [15] and in data set [16] was Active.
